Values quoted from earlier work, collected in patent US20070122507A1, “Histone deacetylase and tumor necrosis factor converting enzyme inhibition” (priority 2005, published 2007).

System: R6/2 transgenic mouse models
Conditions: HD in R6/2 transgenic mouse models

CCCC(=O)[O-].[Na+] [sodium butyrate]
motor deficits: reduces | neuropathological effects: reduces | survival: significantly enhances survival
